Results: patent US20080152640A1, “Means and Methods For Treating a Disease Which is Associated With an Excess Transport of Hyaluronan Across a Lipid Bilayer” (priority 2003, published 2008)
Read-outs that look alike come from different tables or passages of the source.

Columns and labels:
MDR1 = MDR1 (Homo sapiens, UniProt P08183); conditions: cited from earlier work
MRP5 = MRP5 (Homo sapiens, UniProt O15440); conditions: cited from earlier work
hyaluronan synthase = conditions: read-out: HA synthase activity (IC50); membranes of human fibroblasts
MRP4 = biological target: T1, MRP4 (Homo sapiens, UniProt O15439); conditions: cited from earlier work
T1 sequence (O15439 1-1325): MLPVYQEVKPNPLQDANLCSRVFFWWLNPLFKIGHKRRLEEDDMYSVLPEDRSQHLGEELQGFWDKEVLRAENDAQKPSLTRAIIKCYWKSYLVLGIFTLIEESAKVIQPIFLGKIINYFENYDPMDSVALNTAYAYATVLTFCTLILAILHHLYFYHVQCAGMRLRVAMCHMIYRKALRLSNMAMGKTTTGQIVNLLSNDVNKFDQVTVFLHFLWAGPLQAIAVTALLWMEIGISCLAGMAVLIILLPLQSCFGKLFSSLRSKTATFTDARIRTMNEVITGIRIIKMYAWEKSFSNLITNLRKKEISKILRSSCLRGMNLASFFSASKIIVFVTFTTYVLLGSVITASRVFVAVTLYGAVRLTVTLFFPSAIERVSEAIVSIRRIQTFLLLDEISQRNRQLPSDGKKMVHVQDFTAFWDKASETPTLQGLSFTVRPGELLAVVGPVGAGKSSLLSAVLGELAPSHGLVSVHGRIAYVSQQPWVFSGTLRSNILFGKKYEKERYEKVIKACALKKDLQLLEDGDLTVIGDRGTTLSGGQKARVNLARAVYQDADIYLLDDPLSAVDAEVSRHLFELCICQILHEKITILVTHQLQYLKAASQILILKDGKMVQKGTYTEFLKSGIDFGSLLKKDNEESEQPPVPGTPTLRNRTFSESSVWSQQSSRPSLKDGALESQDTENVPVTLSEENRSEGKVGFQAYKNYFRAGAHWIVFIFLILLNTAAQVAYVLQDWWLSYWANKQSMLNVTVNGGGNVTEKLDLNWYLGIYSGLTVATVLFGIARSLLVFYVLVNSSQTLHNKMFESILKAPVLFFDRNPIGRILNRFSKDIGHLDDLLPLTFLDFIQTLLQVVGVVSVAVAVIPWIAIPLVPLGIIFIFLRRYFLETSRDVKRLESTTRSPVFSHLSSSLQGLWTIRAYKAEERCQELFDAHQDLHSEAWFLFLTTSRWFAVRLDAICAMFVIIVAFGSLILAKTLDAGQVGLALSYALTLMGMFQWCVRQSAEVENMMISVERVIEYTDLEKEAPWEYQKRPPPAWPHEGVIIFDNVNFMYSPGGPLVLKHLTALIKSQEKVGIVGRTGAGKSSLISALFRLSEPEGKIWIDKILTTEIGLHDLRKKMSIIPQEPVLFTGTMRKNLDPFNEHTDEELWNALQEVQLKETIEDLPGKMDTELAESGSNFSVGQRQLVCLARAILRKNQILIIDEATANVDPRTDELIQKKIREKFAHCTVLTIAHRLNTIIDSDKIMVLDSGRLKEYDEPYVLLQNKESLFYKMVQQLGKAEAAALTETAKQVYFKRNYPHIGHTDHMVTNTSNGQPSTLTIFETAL

human fibroblasts = assay: Hyaluronan production of human fibroblasts (ELISA of culture medium); format: cell-based; conditions: Fibroblast; human fibroblasts, culture medium; read-out: HA production (IC50)
human skin fibroblasts = assay: Proliferation of human skin fibroblasts (cell counting); format: cell-based; conditions: Homo sapiens, Skin fibroblast, read-out: Proliferation (IC50)
Protocol: Human fibroblasts were grown in […] in Dulbecco's modified Eagles medium supplemented with streptomycin/penicillin (100 units of each/ml), kanamycin (100 units/ml) and 10% foetal calf serum. Cell proliferation was determined by cell counting after trypsinisation three days after seeding.

Chain of MRP5 (O15440 whole entry): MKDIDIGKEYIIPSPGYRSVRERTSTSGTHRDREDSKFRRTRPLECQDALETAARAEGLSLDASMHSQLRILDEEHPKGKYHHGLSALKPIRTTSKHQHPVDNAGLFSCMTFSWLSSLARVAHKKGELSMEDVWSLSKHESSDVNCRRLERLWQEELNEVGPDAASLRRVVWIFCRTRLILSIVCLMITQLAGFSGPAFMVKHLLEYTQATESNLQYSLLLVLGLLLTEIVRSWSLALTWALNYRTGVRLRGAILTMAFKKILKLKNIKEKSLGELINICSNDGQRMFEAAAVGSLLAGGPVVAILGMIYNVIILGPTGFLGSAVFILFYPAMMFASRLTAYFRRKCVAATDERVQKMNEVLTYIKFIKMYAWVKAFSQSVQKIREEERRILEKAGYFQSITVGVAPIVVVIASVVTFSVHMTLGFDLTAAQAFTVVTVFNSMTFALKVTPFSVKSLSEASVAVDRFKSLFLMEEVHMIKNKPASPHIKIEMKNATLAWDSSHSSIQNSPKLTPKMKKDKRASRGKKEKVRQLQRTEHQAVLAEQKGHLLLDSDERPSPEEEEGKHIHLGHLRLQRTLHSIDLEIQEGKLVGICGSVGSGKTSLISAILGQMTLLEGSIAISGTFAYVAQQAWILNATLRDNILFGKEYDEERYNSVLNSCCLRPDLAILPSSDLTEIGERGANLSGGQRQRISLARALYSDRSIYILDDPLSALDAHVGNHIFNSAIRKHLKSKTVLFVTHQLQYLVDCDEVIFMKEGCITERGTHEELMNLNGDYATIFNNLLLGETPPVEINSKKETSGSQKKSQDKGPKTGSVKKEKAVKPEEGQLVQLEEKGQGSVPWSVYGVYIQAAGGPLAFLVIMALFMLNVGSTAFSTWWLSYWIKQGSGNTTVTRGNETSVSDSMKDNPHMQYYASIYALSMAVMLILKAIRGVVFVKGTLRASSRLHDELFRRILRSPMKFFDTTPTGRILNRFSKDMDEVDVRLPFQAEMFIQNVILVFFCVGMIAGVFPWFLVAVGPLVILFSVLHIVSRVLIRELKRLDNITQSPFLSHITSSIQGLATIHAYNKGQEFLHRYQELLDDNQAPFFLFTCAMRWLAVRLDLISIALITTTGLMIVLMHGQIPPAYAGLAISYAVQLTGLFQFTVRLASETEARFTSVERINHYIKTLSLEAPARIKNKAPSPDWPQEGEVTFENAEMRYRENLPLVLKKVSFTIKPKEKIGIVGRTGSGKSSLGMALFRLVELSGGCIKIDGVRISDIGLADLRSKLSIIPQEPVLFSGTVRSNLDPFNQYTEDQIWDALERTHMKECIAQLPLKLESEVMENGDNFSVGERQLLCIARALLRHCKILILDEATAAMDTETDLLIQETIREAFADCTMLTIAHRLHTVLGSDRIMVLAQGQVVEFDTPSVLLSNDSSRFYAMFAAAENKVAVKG
Chain of MDR1 (P08183 whole entry): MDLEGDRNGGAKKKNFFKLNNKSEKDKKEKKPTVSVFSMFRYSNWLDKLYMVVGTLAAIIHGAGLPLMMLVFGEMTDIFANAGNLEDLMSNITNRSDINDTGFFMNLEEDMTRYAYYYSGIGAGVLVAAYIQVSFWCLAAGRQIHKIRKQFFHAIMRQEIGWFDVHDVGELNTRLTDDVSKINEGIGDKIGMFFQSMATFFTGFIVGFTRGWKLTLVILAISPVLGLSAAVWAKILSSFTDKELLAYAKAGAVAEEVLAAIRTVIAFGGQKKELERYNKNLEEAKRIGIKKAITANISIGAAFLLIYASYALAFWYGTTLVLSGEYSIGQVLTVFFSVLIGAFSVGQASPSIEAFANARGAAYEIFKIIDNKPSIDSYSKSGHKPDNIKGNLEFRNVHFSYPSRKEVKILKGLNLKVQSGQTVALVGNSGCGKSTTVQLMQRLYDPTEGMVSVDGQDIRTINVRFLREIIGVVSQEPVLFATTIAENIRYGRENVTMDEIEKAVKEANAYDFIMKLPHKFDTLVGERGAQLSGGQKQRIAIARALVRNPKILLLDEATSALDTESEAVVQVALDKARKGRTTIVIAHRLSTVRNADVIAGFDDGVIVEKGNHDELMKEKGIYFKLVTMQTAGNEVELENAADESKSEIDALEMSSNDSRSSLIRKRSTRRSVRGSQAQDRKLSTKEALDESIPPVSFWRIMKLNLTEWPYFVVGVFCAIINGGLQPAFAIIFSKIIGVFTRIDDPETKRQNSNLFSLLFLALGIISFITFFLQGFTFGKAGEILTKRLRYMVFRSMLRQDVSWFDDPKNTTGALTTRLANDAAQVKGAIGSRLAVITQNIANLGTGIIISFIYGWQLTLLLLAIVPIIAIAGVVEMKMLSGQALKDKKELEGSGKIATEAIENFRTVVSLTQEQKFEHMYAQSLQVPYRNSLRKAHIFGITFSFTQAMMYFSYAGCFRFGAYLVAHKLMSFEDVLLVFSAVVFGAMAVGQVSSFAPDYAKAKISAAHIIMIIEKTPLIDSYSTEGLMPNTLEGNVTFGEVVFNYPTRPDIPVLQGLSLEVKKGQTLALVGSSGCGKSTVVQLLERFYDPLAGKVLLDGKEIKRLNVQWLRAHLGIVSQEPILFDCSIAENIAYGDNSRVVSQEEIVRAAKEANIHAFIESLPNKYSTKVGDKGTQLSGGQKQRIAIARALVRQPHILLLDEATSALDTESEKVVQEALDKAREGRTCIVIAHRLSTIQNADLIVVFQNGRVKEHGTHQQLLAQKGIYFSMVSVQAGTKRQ

In the case of `CCCN(CCC)S(=O)(=O)c1ccc(C(=O)O)cc1` [Probenecid], the IC50 (MDR1; read-out: IC50 for MDR1) is listed as over 2000 µM, the IC50 (MDR1; read-out: published inhibitory concentrations IC50 or Ki, MDR1) is listed as over 2000 µM and the “inhibition of MRP5 mediated transport of cGMP” value (MRP5; at a concentration of 50 μM) is listed as 68%. The IC50 (MRP5; substrate PMEA, read-out: IC50, PMEA transport by MRP5) was 200 µM, the “concentration inhibiting export of fluorescein diacetate by MRP5” value (MRP5; substrate fluorescein diacetate) was 1 mM and the IC50 (hyaluronan synthase) was 200 µM. For the same compound, the IC50 (MRP4; read-out: IC50, 9-(2-phosphonomethoxyethyl)adenine (PMEA) transport by MRP4, substrate PMEA) was 2300 µM, the IC50 (MRP4; read-out: IC50, MRP4 mediated export of methotrexate, substrate methotrexate) was about 300 µM and the IC50 (MRP4; read-out: published inhibitory concentrations IC50 or Ki, MRP4) was 300 µM. It also gave an IC50 (human fibroblasts) of 200 µM and an IC50 (human skin fibroblasts) of 200 µM.
